Data taken from ChEMBL document CHEMBL4422633, “Antioxidant-Inspired Drug Discovery: Antitumor Metabolite Is Formed in Situ from a Hydroxycinnamic Acid Derivative upon Free-Radical Scavenging” (J Med Chem, 2019).
Activity calls are given as the source filed them. No cut-off for these calls is given here.

Assays:
[1] = Cytotoxicity against mouse L5178 cells assessed as reduction in cell viability after 72 hrs by MTT assay; assay type: functional, cell-based; settings: L5178, 72 h
[2] = Cytotoxicity against mouse L5178B1 cells transfected with pHa MDR1/A retrovirus assessed as reduction in cell viability after 72 hrs by MTT assay; assay type: functional, cell-based; settings: MDR1, 72 h
NCI-H460 = test: Cytotoxicity against human NCI-H460 cells assessed as reduction in cell viability after 72 hrs by MTT assay; assay type: functional, cell-based; settings: NCI-H460, 72 h
[3] = Cytotoxicity against human NCI-H460/R cells transfected with MDR assessed as reduction in cell viability after 72 hrs by MTT assay; assay type: functional, cell-based; settings: NCI-H460, 72 h
A549 = test: Cytotoxicity against human A549 cells assessed as reduction in cell viability after 72 hrs by MTT assay; assay type: functional, cell-based; settings: A549, 72 h
NCI-H661 = test: Cytotoxicity against human NCI-H661 cells assessed as reduction in cell viability after 72 hrs by MTT assay; assay type: functional, cell-based; settings: NCI-H661, 72 h
HaCaT = test: Cytotoxicity against human HaCaT cells assessed as reduction in cell viability after 72 hrs by MTT assay; assay type: cell-based
MCF7 [4] = test: Cytotoxicity against human MCF7 cells assessed as reduction in cell viability after 72 hrs by MTT assay; assay type: functional, cell-based; settings: MCF7, 72 h
HeLa = test: Cytotoxicity against human HeLa cells assessed as reduction in cell viability after 72 hrs by MTT assay; assay type: functional, cell-based
SiHa = test: Cytotoxicity against human SiHa cells assessed as reduction in cell viability after 72 hrs by MTT assay; assay type: functional, cell-based
[5] = molecular target: T1, Serine/threonine-protein kinase Chk1 (Homo sapiens) (UniProt O14757); test: Inhibition of CHK1 phosphorylation at S345 in human MCF7 cells at 10 uM pretreated for 30 mins followed by 10 J/m'2 irradiation and measured after 1 hr by Western blot analysis; assay type: cell-based
T1 sequence (whole entry): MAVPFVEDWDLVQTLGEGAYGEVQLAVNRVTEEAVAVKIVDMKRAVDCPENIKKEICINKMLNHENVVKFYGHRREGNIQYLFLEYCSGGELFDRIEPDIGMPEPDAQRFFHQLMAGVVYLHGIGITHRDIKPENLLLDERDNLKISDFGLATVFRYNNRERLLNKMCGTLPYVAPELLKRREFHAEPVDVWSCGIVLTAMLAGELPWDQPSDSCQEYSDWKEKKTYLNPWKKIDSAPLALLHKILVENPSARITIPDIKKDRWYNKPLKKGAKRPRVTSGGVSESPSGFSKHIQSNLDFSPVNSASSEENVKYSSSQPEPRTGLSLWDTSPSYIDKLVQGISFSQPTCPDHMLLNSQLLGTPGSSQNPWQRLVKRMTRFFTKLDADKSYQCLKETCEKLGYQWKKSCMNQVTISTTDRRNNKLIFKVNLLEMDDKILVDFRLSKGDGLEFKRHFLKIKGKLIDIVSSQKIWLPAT

[6] = molecular target: Serine/threonine-protein kinase Chk2 (Homo sapiens) (UniProt O96017); test: Inhibition of CHK2 phosphorylation at T68 in human MCF7 cells at 10 uM pretreated for 30 mins followed by 10 J/m'2 irradiation and measured after 1 hr by Western blot analysis; assay type: cell-based
[7] = Antioxidant activity assessed as hydroxyl radical scavenging activity by measuring inhibition of damage to 2-deoxy-D-ribose after 3 mins by TBA-based Fenton reaction assay; assay type: functional
MCF7 [8] = test: Cytotoxicity against human MCF7 cells assessed as combination index measured at ED50 at H2O2/pcm ratio of 2.5:1 in presence of H2O2 after 48 hrs by MTT assay; assay type: functional
MCF7 [9] = test: Cytotoxicity against human MCF7 cells assessed as combination index measured at ED75 at H2O2/pcm ratio of 2.5:1 in presence of H2O2 after 48 hrs by MTT assay; assay type: functional
MCF7 [10] = test: Cytotoxicity against human MCF7 cells assessed as combination index measured at ED90 at H2O2/pcm ratio of 2.5:1 in presence of H2O2 after 48 hrs by MTT assay; assay type: functional
Liver = test: Antioxidant activity in rat liver microsomes assessed as reduction in lipid peroxidation; assay type: functional, Microsome
MCF7 [11] = test: Cytotoxicity against human MCF7 cells assessed as combination index measured at ED50 at H2O2/pcm ratio of 1.25:1 in presence of H2O2 after 48 hrs by MTT assay; assay type: functional
MCF7 [12] = test: Cytotoxicity against human MCF7 cells assessed as combination index measured at ED75 at H2O2/pcm ratio of 1.25:1 in presence of H2O2 after 48 hrs by MTT assay; assay type: functional
MCF7 [13] = test: Cytotoxicity against human MCF7 cells assessed as combination index measured at ED90 at H2O2/pcm ratio of 1.25:1 in presence of H2O2 after 48 hrs by MTT assay; assay type: functional
MCF7 [14] = test: Cytotoxicity against human MCF7 cells assessed as combination index measured at ED50 at H2O2/pcm ratio of 0.625:1 in presence of H2O2 after 48 hrs by MTT assay; assay type: functional
MCF7 [15] = test: Cytotoxicity against human MCF7 cells assessed as combination index measured at ED75 at H2O2/pcm ratio of 0.625:1 in presence of H2O2 after 48 hrs by MTT assay; assay type: functional
MCF7 [16] = test: Cytotoxicity against human MCF7 cells assessed as combination index measured at ED90 at H2O2/pcm ratio of 0.625:1 in presence of H2O2 after 48 hrs by MTT assay; assay type: functional
[17] = Stability in MeOH and H2O2 by HPLC-PDA assay; assay type: physicochemical
[18] = Drug metabolism assessed as methyl 3-(1-hydroxy-4-oxocyclohexa-2,5-dienyl)acrylate formation by reverse phase-HPLC and HPLC-MS analysis based Fenton reaction assay

Sequence of Serine/threonine-protein kinase Chk2 (Homo sapiens) (O96017 whole entry): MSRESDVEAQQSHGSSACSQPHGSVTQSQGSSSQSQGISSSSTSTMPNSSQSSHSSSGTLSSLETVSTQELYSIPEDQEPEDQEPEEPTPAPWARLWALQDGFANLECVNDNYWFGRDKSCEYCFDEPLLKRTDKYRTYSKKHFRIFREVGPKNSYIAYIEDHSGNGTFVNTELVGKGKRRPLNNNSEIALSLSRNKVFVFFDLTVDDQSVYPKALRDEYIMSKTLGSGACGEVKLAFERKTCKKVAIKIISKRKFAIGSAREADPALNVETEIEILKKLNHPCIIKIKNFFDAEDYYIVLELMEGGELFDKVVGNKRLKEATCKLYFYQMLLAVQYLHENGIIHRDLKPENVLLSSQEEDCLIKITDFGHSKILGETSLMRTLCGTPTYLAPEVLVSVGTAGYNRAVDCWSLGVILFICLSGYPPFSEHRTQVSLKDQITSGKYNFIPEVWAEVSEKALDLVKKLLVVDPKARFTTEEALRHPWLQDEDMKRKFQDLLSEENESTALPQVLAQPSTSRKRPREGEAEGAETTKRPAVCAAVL

**Q.** Which results are given for `COC(=O)/C=C/c1ccc(O)cc1` [METHYL P-HYDROXYCINNAMATE]?
**A.** IC50 [1]: 126 µM; IC50 [2]: > 150 µM; IC50 (NCI-H460): 120 µM; IC50 [3]: 1040 µM; IC50 (A549): 323 µM; IC50 (NCI-H661): 289 µM; IC50 (HaCaT): 311 µM; IC50 (MCF7 [4]): > 400 µM; IC50 (HeLa): > 150 µM; IC50 (SiHa): > 150 µM; inhibition [5]: inactive; inhibition [6]: inactive; IC50 [7]: 345 µM; CI (MCF7 [8]): 0.79; CI (MCF7 [9]): 0.6; CI (MCF7 [10]): 0.45; IC50 (Liver): 0.4 µM; CI (MCF7 [11]): 0.93; CI (MCF7 [12]): 0.6; CI (MCF7 [13]): 0.39; CI (MCF7 [14]): 1.06; CI (MCF7 [15]): 0.68; CI (MCF7 [16]): 0.44; Stability [17]: <= 92 hr; Drug metabolism [18]: Metabolite detected
